Results as given in patent publication US20240261294A1, “METHOD FOR TREATING IDH INHIBITOR-RESISTANT SUBJECTS” (Eli Lilly and Company, priority 2021, published 2024).
Changes are numbered by the printed parent chain. Read-outs that look alike come from different tables or passages of the source.

How the values were obtained:
[1] = biological target: T1, IDH2 R140Q_P167R cis (Homo sapiens, UniProt P48735, P167R/R140Q); test: Inhibition of 2-HG production in IDH2 mutant U-87 MG cells; type: cell-based; details: read-out: Relative IC50 (nM) Mean, inhibition of 2-HG production
T1 construct: expressed in transfected cells; host or cells: U-87 MG
T1 sequence (P48735 40-452 R140Q/P167R): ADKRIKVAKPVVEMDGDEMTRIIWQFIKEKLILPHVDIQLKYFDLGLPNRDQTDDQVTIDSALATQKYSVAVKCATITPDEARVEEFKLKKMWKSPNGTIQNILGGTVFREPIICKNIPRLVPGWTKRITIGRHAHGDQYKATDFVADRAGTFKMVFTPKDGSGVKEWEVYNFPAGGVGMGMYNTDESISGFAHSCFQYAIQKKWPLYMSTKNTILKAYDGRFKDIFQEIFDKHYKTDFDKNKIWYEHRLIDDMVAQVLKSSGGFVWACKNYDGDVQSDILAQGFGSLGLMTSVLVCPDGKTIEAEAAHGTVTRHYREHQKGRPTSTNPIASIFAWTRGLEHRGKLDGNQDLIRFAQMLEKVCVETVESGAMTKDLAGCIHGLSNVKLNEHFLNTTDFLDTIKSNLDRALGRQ

[2] = biological target: T2, IDH2 R172W (Homo sapiens, UniProt P48735, R172W); test: as above; type: cell-based; details: read-out: Relative IC50 (nM) Mean, inhibition of 2-HG production
T2 construct: expressed in transfected cells; host or cells: U-87 MG
T2 sequence (P48735 40-452 R172W): T1 sequence (P48735 40-452 R140Q/P167R) with Q101R, R128P, R133W

[3] = 16 hours incubation, 50K cells/well, 100 μl media/well
[4] = 72 hours incubation, 12.5K cells/well

C=CC(=O)N1CCN([C@@H](CC2CC2)c2ccc([C@H](C)Nc3ncc4c(n3)N(CC)C(=O)OC4)cc2)CC1 [Compound A, 7-[[(1S)-1-[4-[(1S)-2-cyclopropyl-1-(4-prop-2-enoylpiperazin-1-yl)ethyl]phenyl]ethyl]amino]-1-ethyl-4H-pyrimido[4,5-d][1,3]oxazin-2-one]
IC50 [1, 3]: 639 nM | IC50 [1, 4]: 104 nM | IC50 [2, 3]: 336 nM | IC50 [2, 4]: 47 nM
